{"source": "patent US9339523B2", "about": "“Estrogenic extracts of Asparagus conchinchinensis (Lour.) Merr of the Liliaceae family and uses thereof” (BIONOVO, INC., priority 2007, dated 2016)", "key": {"TNF-RE tkLuc": {"tested_on": "TNF-RE tkLuc", "assay": "TNF-RE tkLuc reporter, ERα and ERβ not separated (Example 2)", "assay_type": "cell-based, human", "settings": "for activation of TNF-RE tkLuc: antiestrogens, in contrast to E2", "description": "Plasmid Construction. […] ERβ mutants were created with QuikChange site-directed mutagenesis kits (Stratagene), by using oligonucleotides containing the mutation. The mutants were sequenced with Sequenase kits (Amersham Pharmacia) to verify the presence of the mutation.\n(§1) For experiments, cells were collected, transferred to a cuvette, and then electroporated with a Bio-Rad gene pulser as described previously using 3 μg of reporter plasmid and 1 μg of ERα or ERβ expression vectors. After electroporation, the cells were resuspended in media and plated at 1 ml/dish in 12-well multiplates. […] The concentration of hormone required to produce a half-maximal induction (EC50) or inhibition (IC50) of luciferase activity was calculated with the Prism curve-fitting program (Graph Pad Software, version 2.0b). […] The cells were plated in duplicate at a density of 25,000 cells/35-mm plate in tissue culture medium containing 3% stripped fetal bovine serum. […] After 8 days the cells were counted with a Coulter counter."}, "ERβ [1]": {"target": "T1, ERβ (Homo sapiens, UniProt Q92731)", "T1 sequence (Q92731 whole entry)": "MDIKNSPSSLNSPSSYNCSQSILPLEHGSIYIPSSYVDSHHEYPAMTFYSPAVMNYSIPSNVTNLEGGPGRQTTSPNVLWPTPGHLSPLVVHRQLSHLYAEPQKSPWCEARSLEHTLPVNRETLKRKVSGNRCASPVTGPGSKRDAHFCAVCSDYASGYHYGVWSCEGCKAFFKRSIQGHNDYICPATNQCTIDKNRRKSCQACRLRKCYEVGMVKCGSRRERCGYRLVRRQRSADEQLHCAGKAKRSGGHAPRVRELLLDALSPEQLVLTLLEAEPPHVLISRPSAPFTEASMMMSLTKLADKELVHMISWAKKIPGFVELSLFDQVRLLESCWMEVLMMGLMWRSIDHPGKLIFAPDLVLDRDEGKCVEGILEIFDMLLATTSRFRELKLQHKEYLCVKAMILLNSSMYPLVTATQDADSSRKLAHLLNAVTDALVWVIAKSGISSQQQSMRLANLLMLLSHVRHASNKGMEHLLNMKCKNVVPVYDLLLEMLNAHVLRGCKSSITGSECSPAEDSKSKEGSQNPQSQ", "assay": "TNF-RE tkLuc repression in U2OS cells with ERβ", "assay_type": "cell-based", "parameters": "expressed in transfected cells; host or cells: U2OS (A10)", "description": "as §1\n(§2) The extracts (a and b) were than decanted and only the soluble material was used."}, "[2]": {"settings": "five years of therapy; cited from earlier work"}, "[3]": {"settings": "women at high risk for breast cancer; cited from earlier work"}, "ERβ [4]": {"target": "T1, ERβ", "assay": "ERE-tk-Luc luciferase assay in U2OS cells with ERβ", "assay_type": "cell-based", "parameters": "expressed in transfected cells; host or cells: U2OS (human osteosarcoma)", "settings": "competition with the extract, FIG. 6", "description": "as §1, §2"}}}
{"compound": "C[C@]12CC[C@@H]3c4ccc(O)cc4C[C@@H](CCCCCCCCC[S+]([O-])CCCC(F)(F)C(F)(F)F)[C@H]3[C@@H]1CC[C@@H]2O", "note": "(stereo partly shown) [ICI 182, 780]", "values": [{"measurement": "effect on the repression induced by E2", "setting": "TNF-RE tkLuc; TNF-RE tkLuc", "result": "abolished the repression induced by E2"}, {"measurement": "activation of TNF-RE tkLuc", "setting": "TNF-RE tkLuc", "result": 2, "unit": "fold"}]}
{"compound": "C[C@]12CC[C@@H]3c4ccc(O)cc4CC[C@H]3[C@@H]1CC[C@@H]2O", "note": "[E2, estradiol]", "values": [{"measurement": "repression of TNF-α activation of TNF-RE tkLuc", "setting": "TNF-RE tkLuc; in the presence of ERα and ERβ", "result": "60-80%"}, {"measurement": "repression of TNF-α activation of TNF-RE", "setting": "ERβ [1]", "result": 100, "unit": "%"}]}
{"compound": "CC/C(=C(\\c1ccccc1)c1ccc(OCCN(C)C)cc1)c1ccccc1", "note": "[tamoxifen]", "values": [{"measurement": "effect on the repression induced by E2", "setting": "TNF-RE tkLuc; TNF-RE tkLuc", "result": "abolished the repression induced by E2"}, {"measurement": "activation of TNF-RE tkLuc", "setting": "TNF-RE tkLuc", "result": 2, "unit": "fold"}, {"measurement": "reduction of mortality from breast cancer", "setting": "[2]", "result": 22, "unit": "%"}, {"measurement": "reduction of the risk of recurrences", "setting": "[2]", "result": 42, "unit": "%"}, {"measurement": "reduction of the risk of primary invasive breast cancer", "setting": "[3]", "result": 49, "unit": "%"}]}
{"compound": "O=C(c1ccc(OCCN2CCCCC2)cc1)c1c(-c2ccc(O)cc2)sc2cc(O)ccc12", "note": "[raloxifene]", "values": [{"measurement": "effect on the repression induced by E2", "setting": "TNF-RE tkLuc; TNF-RE tkLuc", "result": "abolished the repression induced by E2"}, {"measurement": "activation of TNF-RE tkLuc", "setting": "TNF-RE tkLuc", "result": 2, "unit": "fold"}, {"measurement": "effect on the extract's stimulation of the ERE with ERβ", "setting": "ERβ [4]", "result": "is inhibited"}]}
{"compound": "TNF-α", "values": [{"measurement": "activation of 3 copies of the TNF-RE (−125 to −82) upstream of the tk promoter", "setting": "TNF-RE tkLuc; TNF-RE tkLuc", "result": "5-10 fold"}]}
